Results on 1 compound are retold here after patent US20130266636A1, “METHODS FOR BLOCKING CELL PROLIFERATION AND TREATING DISEASES AND CONDITIONS RESPONSIVE TO CELL GROWTH INHIBITION” (THE REGENTS OF THE UNIVERSITY OF CALIFORNIA, priority 2010, published 2013).

Experiment [1] relates to human lung (A549) carcinoma cell line. The experiment can be described thus: Cell viability assay in A549 cells. The format is cell-based.
The test system of experiment [2] is MDA-MB-231 human breast carcinoma cells. The experiment is described as follows: Cells in pro-metaphase in orthotopic breast tumor xenografts. In kind it is in vivo, mice. Particulars: systemic KG5 50 mg/Kg, after three days. The source says: FIG. 34. CRAF is required for mitotic progression: (a) Cell cycle analysis of WT and CRAF−/− MEFs. Left graph, Cells in G2/M were quantified by flow cytometry. Right graph, Cells at pro-metaphase were quantified using confocal microscopy. Error bars represent s.d. (n=4); * two tailed p value=0.0079 (left graph) and p=0.0055 (right graph) using a Mann Whitney U test. (b) WT and CRAF−/− MEFs were synchronized at pro-metaphase with a thymidine-nocodazole block as described in these Methods, and subsequently released from the blockade and allowed to progress through mitosis. Quantification of cells in G2/M was performed by flow cytometry. Error bars represent s.d. (n=3). (c) Confocal microscopy images of WT and CRAF−/− cells progressing through mitosis at 0, 60 and 360 minutes after release from pro-metaphase blockade. Cells were stained for α-tubulin (in red) and DNA (TOPRO-3™ in blue). Scale bar, 10 μm. […] Cell cycle analysis and quantification of cells in G2/M was performed by flow cytometry. […] (e) Immunohistochemical staining of phospho-5338 CRAF and phospho-histone H3 (mitotic marker) in orthotopic breast and tumor xenografts untreated or treated systemically with KG5 (50 mg/Kg for 3 days Scale bar, 50 μm. […]. Circles indicate cells in pro-metaphase. Right, Quantification of cells in pro-metaphase. Error bars represent s.d. (n=12); * two tailed p value=0.006 using Student T test. […]

The next experiment has as its target CRAF (Homo sapiens, UniProt P04049). The experiment can be described thus: CRAF localization to the mitotic spindle, confocal microscopy of XPA-1 cells. The format is cell-based. The arrangement: total CRAF and total MEK of lysates from XPA-1 cells treated with PD0325901, Sorafenib, L-779450, PLX4720, KG5 or KG1; endogenous in cells; host or cells: XPA-1. The source says: FIG. 35. […] Data are representative of three independent experiments. FIG. 35 (b) Confocal microscopy images of human pancreatic XPA-1 and glioblastoma U251 cells during mitosis, stained for phospho-5338 CRAF (in green), α-tubulin (in red) and DNA (TOPRO-3™ in blue). Scale bar, 10 μm. White arrows indicate localization of phospho-S338 CRAF at the mitotic spindle. FIG. 35 (c) Immunoblot analysis of γ-tubulin immunoprecipitates from human colon carcinoma HCT-116 cells asynchronized and synchronized at pro-metaphase. Data are representative of three independent experiments. FIG. 35(d) Immunohistochemical staining of phospho-S338 CRAF in tumor biopsies from breast cancer patients. Scale bar, 10 μm. FIG. 35(e) Confocal microscopy images of XPA-1 cells treated with KG5, sorafenib, ZM336372, L779450 or paclitaxel and stained for CRAF (in green), γ-tubulin (in red) and DNA (TOPRO-3™ in blue). Scale bar, 10 μm. White arrows indicate localization of CRAF at the spindle pole. White circle indicates the absence of CRAF at the spindle pole.
Cells attached to cover-slips were fixed with cold methanol and permeabilized in PBS containing 0.1% triton for two minutes and blocked for 60 minutes, at room temperature with 2% BSA in PBS. Cells were stained with antibodies to CRAF (Abcam), phospho-serine 338 CRAF (SantaCruz), phospho-serine 338 CRAF (Thermo Scientific), a tubulin (Calbiochem), γ tubulin (Abcam), laminB (SantaCruz), Plk1 (Abcam), phospho-T210 Plk1 (Abcam), or phospho-T288 Aurora A (cell signaling). All primary antibodies were used at 1:100 dilution, for two hours at room temperature. After washing several times with PBS, cells were stained for two hours at room temperature, with secondary antibody specific for mouse, rabbit or goat (Invitrogen), as appropriate, diluted 1:300 and co-incubated with the DNA dye TOPRO-3™ (1:500) (Invitrogen). Samples were mounted in VECTASHIELD™ hard-set mounting media (Vector Laboratories) and imaged on a Nikon ECLIPSE C1™ confocal microscope with a 1.4 NA 60× oil-immersion lens, using minimum pinhole (30 μm). Images were captured using EZ-C1-3.50 imaging software.

In the next experiment the target is PDGFRβ (Homo sapiens, UniProt P09619). Particulars: in response to PDGF-BB; cited from earlier work.
The test system of experiment [3] is human breast (T47D) carcinoma cell line. The experiment is described as follows: Cell viability assay in T47D cells. The format is cell-based.
The subject of another experiment is FAK or Src. The conditions noted are these: cited from earlier work.
Another experiment relates to p-MEK and p-ERK. Particulars: cited from earlier work.

Structures are written as SMILES. “Also recorded” adds a separate entry of the source.

Sequence of CRAF (P04049 whole entry): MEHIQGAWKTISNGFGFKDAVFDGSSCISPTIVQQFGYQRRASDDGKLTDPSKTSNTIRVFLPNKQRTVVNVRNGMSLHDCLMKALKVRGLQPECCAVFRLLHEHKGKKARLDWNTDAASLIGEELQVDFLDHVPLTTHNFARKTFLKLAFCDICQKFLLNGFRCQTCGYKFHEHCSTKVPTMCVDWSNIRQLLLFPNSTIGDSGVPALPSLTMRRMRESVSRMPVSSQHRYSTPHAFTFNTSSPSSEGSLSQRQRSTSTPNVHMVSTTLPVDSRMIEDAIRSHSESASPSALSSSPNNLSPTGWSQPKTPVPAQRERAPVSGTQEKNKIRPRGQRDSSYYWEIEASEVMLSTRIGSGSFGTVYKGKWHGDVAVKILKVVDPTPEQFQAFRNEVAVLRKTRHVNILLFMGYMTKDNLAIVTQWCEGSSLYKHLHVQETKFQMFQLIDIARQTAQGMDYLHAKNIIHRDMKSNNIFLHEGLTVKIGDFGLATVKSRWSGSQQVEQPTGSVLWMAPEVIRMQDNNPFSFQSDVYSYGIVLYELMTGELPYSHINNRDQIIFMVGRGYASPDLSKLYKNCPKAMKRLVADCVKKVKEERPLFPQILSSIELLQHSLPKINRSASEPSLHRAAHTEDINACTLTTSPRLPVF
Sequence of PDGFRβ (P09619 33-1106, species assumed): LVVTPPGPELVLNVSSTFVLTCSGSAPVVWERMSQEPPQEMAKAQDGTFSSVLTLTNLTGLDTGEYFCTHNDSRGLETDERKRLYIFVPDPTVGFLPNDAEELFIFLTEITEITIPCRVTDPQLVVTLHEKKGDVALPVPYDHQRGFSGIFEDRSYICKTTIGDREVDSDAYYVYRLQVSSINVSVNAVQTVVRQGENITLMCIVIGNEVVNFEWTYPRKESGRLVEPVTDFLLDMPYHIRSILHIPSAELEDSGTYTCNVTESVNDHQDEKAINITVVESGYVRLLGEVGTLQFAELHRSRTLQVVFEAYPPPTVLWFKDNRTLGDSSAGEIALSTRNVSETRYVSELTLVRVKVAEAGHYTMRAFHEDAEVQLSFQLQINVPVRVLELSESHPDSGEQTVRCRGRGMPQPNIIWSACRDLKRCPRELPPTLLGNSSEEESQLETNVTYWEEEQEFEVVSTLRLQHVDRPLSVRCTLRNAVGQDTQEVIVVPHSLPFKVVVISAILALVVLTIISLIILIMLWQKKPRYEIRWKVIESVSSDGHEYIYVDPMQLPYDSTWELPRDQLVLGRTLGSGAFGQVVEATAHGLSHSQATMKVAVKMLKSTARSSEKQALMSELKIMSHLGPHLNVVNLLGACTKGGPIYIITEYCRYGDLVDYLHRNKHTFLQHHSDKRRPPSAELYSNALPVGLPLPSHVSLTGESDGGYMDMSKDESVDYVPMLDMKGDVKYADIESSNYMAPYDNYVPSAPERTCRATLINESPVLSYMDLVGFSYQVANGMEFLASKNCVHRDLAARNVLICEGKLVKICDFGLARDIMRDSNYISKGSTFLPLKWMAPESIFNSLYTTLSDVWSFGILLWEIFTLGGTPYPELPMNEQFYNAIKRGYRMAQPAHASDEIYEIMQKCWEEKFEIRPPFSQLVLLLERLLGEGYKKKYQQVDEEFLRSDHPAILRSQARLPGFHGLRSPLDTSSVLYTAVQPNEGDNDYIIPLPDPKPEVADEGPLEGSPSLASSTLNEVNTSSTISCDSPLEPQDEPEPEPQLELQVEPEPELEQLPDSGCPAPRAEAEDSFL

Take `CSc1nc(N)cc(Oc2ccc(-c3nnc(Nc4cccc(C(F)(F)F)c4)[nH]3)cc2)n1` [KG5]: the cell viability entry in experiment [1] (A549) was “decrease cell viability”. Further, in experiment [1] (A549 lung cancer cells), the EC50 result is on record as “approach picomolar (pM) EC50s”. The “cells at pro-metaphase in orthotopic breast tumor tissues” value in experiment [2] is reported as “accumulation of cells at pro-metaphase”. At CRAF, the “CRAF localization to the mitotic spindle” value is reported as “prevents CRAF recruitment to the mitotic spindle; also recorded: prevented this localization” and the “prevents phospho-S338 CRAF recruitment to the mitotic spindle” value is given as “prevents phospho-S338 CRAF recruitment to the mitotic spindle”. Also, the PDGFRβ autophosphorylation entry at PDGFRβ was “directly impacts PDGFRβ autophosphorylation”. Moreover, the cell viability entry in experiment [3] (T47D) is recorded as “decrease cell viability”. Also, in experiment [3] (T47D breast cancer cells), the EC50 result is reported as “approach picomolar (pM) EC50s”. In the experiment with FAK or Src, the “integrin-mediated signaling to FAK or Src” value is listed as “no effect”. Moreover, the “p-MEK and p-ERK” value in the experiment on p-MEK and p-ERK (bFGF- or VEGF-stimulated endothelial cells) is listed as “blocked”. In addition, in the experiment with p-MEK and p-ERK (endothelial cells), the “bFGF- or VEGF-mediated phosphorylation of MEK on S217/S221” value is reported as “inhibited” and the “bFGF- or VEGF-mediated phosphorylation of MEK on S298” value is “not on S298”.
